Source: patent publication EP3900733A1, “SRC KINASE ACTIVATORS AND ENG FUNCTION INHIBITORS AS ENHANCERS OF SKIN HOMEOSTASIS/REGENERATION AND HAIR GROWTH” (Derma Innovate S.L., priority 2020, dated 2021)
Square brackets hold non-standard residues; d marks the D form. Ends that are not written are not given here. pY = N[C@@H](Cc1ccc(OP(=O)(O)O)cc1)C(=O)O

Key:
Type in all cases: cell-based
[1] = system: ex vivo grown human hair follicles; assay: Activation of ex vivo cultured hair follicles (hair bulb area image analysis, histology, Ki67); conditions: for proliferation and differentiation of the hair bulb area (hair follicle activation): combination of PT (mALA and red light), 24 hours after treatments
Experimental: Human hair follicles were obtained from human scalp samples taken from the occipital skin of volunteer donors during a hair transplant procedure. Eligible patients provided written informed consent, and the Ethical committee of the Ramon y Cajal Hospital approved this procedure.
Follicular units (FUs) were dissected using scalpels under a magnifier, and the ones in resting phase (telogen) were selected. Those FUs were transferred to the laboratory and maintained at 4 °C until processed in Williams' medium E (Sigma) supplemented with 10x Penicilin/Streptomycin, 10x Aphotericin B, and 2 mM L-Glutamin (all from Gibco), 5 µg/ml Insulin, 5 µg/ml transferring, 20 pM T3 hormone, 0.083 µg/ml cholera toxin and 0.4 µg/ml hydrocortisone. FUs can be stored in complete Williams' medium at 4 °C for approximately 5 days without significant loss of the mini organ function. FU cultures were maintained at 37°C in a 5% CO2 humidified atmosphere.
Endogenous protoporphyrin IX (PpIX)-dependent photodynamic treatments (PT) were routinely performed on exponentially growing cells at 60% of confluence, as well as in ex vivo cultured hair follicles (HF) (Carrasco E et al. Methods 15:109, 2016; Calvo-Sanchez MI et al. Sci. Rep.9:4509, 2019). To that end, cells and HFs were incubated for 2-4 hours, normally 2 hours, with 0.1 mM of a PpIX metabolic precursor (typically, aminolevulinic acid ALA, or the ALA methylated derivative methyl aminolevulinate mALA) in the corresponding medium in the absence of serum or growth factors. Immediately, approximately 1 minute, after the incubation step the samples were further irradiated 2-15 min, normally between 8 and 10 minutes, with a red-light emitting diode source with an emission peak at 634 nm bandwidth, with a total light dose of 2-10 J/cm^2, normally 4 J/cm^2 (Carrasco E et al. Methods 15:109, 2016; Calvo-Sanchez MI et al. Sci. Rep.9:4509, 2019). […] Additionally, total controls in strict dark conditions (no PpIX precursor, no light) were evaluated for each biological model, although this control was not routinely used in experimental series since ambient light is an unavoidable contaminant, and the light control is the most adequate in this experimental design.
For the quantification of the number of cells in cell cultures after different treatments, a Bio-Rad TC20™ automated cell counter was used following the instructions of the manufacturer. […] Image acquisition was performed using a Nikon Eclipse Ci LED-fluorescence microscope using a 2x objective and a 0.55x Reduction Lens adapter coupled to a Jenoptik PROGRES GRYPHAX® SUBRA Super HD camera and suited Version 1.1.8.153 image software pack. […] Total hair bulb area in high resolution images of whole hair follicles was spotted and quantified using suited free FIJI software packs (https://fiji.sc/). […]

[2] = system: mouse E14 embryonic stem cells; assay: Cell proliferation (automated cell counting), with or without phototreatment; conditions: for enhancement of PT-induced cell proliferation: PT (mALA and red light) combined with YEEI phosphopeptide and/or S-Eng, 48 hours after irradiation
Experimental: (§1) E14 cell line is a derivative of mice embryonic stem cells (ES) obtained from the Inner Cell Mass of 129/Ola mouse strain blastocyst. E14 cells were grown on 0,1% gelatin-coated flasks in GMEM supplemented with 10% FCS tested for stem cells, 0.1 mM mixture of Non Essential Amino acids (NEAA, composed by Glycine, L-Alanine, L-Asparagine, L-Aspartic Acid, L-Glutamic acid, L-Proline and L-Serine), 2 mM L-Glutamine, 1 mM sodium pyruvate, 0.05 mM β-mercaptoethanol, Penicilin/Streptomicin (100 U/ml / 100 µg/ml) and 2.5 µg/ml amphotericin B (all from Gibco) and 1,000 U/ml LIF (Millipore), and splitted 1:8 to 1:10 every 2-3 days using Trypsin-EDTA (Invitrogen) (Smith, 1991; Cambray et al, 2012). Cells were maintained at 37°C in a 5% CO2 humidified atmosphere. The medium was changed on alternative days.
Endogenous protoporphyrin IX (PpIX)-dependent photodynamic treatments (PT) were routinely performed on exponentially growing cells at 60% of confluence, as well as in ex vivo cultured hair follicles (HF) (Carrasco E et al. Methods 15:109, 2016; Calvo-Sanchez MI et al. Sci. Rep.9:4509, 2019). […] Additionally, total controls in strict dark conditions (no PpIX precursor, no light) were evaluated for each biological model, although this control was not routinely used in experimental series since ambient light is an unavoidable contaminant, and the light control is the most adequate in this experimental design.
(§2) Here the functional activation of the cSrc kinase has been specifically associated with the phosphorilation of the Tyr419 residue (or equivalent) of the cSrc protein (Espada J and Martin-Perez J. Int Rev Cell Mol Biol 331:82, 2017). […] The biological activity of each YEEI phosphopeptide batch was evaluated by immunoblot detection of cSrc-Tyr419 levels in protein extracts obtained from treated cell cultures (see Figure 1) […]

[3] = system: human primary skin fibroblasts; assay: as above; conditions: for enhancement of PT-induced cell proliferation: human primary fibroblasts, 48 hours after irradiation
Experimental: Primary cultures of human fibroblasts were obtained from normal human skin. Collection of skin biopsy punches, 4mm diameter, from volunteer donors was routinely performed in the Dermatology Service of the Ramon y Cajal University Hospital, Madrid, Spain, following the regulations of the hospital ethics committee for human research, eligible patients providing written informed consent.
Skin samples were transferred to the laboratory and maintained at 4 °C in DMEM medium (Gibco) with 10x Penicilin/Streptomycin and 10x Aphotericin B until processed, not exceeding 24h. Then, the subcutaneous layer was removed using scalpels, and skin biopsies were cut in small pieces of 1-4 mm^2. In order to obtain primary fibroblasts, skin pieces were incubated in 1mg/ml of collagenase A enzyme (Roche) solution for 4 hours at 37 °C, in mild agitation in order to help cell dissociation.
The supernatant containing the fibroblasts was vigorously pipetted and diluted in DMEM medium supplemented with 10% FCS, 2 mM L-Glutamine, Penicilin/Streptomicin (100 U/ml / 100 µg/ml) and 2.5 µg/ml amphotericin B and centrifuged for five minutes at 1500 RPM. The pellet was resuspended in complete DMEM medium and the fibroblasts were seeded in a maximum density of 1 million cells per ml using a 24 well plate and routinely grown at 37°C in a humidified atmosphere containing CO2 5%. 24 hours later, medium was removed to eliminate all detached cells. The cells were passaged when they reached 70-80% confluency, in order to prevent differentiation. The primary culture reached appropriate confluence after 8 to 10 days, and the derivative subcultures were splitted 1:4 once a week. After 10 to 20 passages, cells undergo senescence.
Endogenous protoporphyrin IX (PpIX)-dependent photodynamic treatments (PT) were routinely performed on exponentially growing cells at 60% of confluence, as well as in ex vivo cultured hair follicles (HF) (Carrasco E et al. Methods 15:109, 2016; Calvo-Sanchez MI et al. Sci. Rep.9:4509, 2019). To that end, cells and HFs were incubated for 2-4 hours, normally 2 hours, with 0.1 mM of a PpIX metabolic precursor (typically, aminolevulinic acid ALA, or the ALA methylated derivative methyl aminolevulinate mALA) in the corresponding medium in the absence of serum or growth factors. Immediately, approximately 1 minute, after the incubation step the samples were further irradiated 2-15 min, normally between 8 and 10 minutes, with a red-light emitting diode source with an emission peak at 634 nm bandwidth, with a total light dose of 2-10 J/cm^2, normally 4 J/cm^2 (Carrasco E et al. Methods 15:109, 2016; Calvo-Sanchez MI et al. Sci. Rep.9:4509, 2019). Immediately after irradiation, approx. 1 minute after, samples were washed in PBS, fresh medium was added, and were further routinely grown at 37°C in a humidified atmosphere containing CO2 5%. When required, activators of cSrc kinase or inhibitors of Eng function (see below) were added, alone or in combination, in the fresh medium used immediately after irradiation, and samples were subsequently incubated for the indicated times. […] Additionally, total controls in strict dark conditions (no PpIX precursor, no light) were evaluated for each biological model, although this control was not routinely used in experimental series since ambient light is an unavoidable contaminant, and the light control is the most adequate in this experimental design. […]

[4] = system: cSrc kinase; assay: cSrc Tyr419 phosphorylation by immunoblot in treated cell cultures; conditions: mouse E14 embryonic stem cells; peptide 100 nM; Figure 1A
Experimental: as §1, §2

Row | Compound | time after PT at which HF activation is evident ([1]; PT using mALA and red light, compared to control, Figure 6) [days] | time after treatment at which activation occurs ([1]; photodynamic treatment with mALA and red light, Figures 6 and 7) | induction of cell proliferation ([2]; 48 hours after treatments, peptide alone, Figure 1B) | enhancement of PT-induced cell proliferation ([2]; Figure 3) | enhancement of PT-induced cell proliferation ([2]; Figure 3, listed as YEEI peptide) | proliferation and differentiation of the hair bulb area (hair follicle activation) ([1]; YEEI phosphopeptide and Apt1 or Apt2, Figure 9) | proliferation and differentiation of the hair bulb area (hair follicle activation) ([1]; YEEI phosphopeptide and siRNA of SEQ ID NO 2, Figure 8) | enhancement of PT-induced cell proliferation ([3]; PT (mALA and red light) combined with YEEI phosphopeptide and/or Apt1 or Apt2, Figure 5) | enhancement of PT-induced cell proliferation ([3]; PT (mALA and red light) combined with YEEI phosphopeptide and/or Apt1 or Apt2, Figure 5, listed as YEEI peptide) | enhancement of PT-induced cell proliferation ([3]; PT (mALA and red light) combined with YEEI phosphopeptide and/or siRNA of SEQ ID NO 2, Figure 4) | enhancement of PT-induced cell proliferation ([3]; PT (mALA and red light) combined with YEEI phosphopeptide and/or siRNA of SEQ ID NO 2, Figure 4, listed as YEEI peptide) | induction of cell proliferation ([3]; human primary skin fibroblasts, 48 hours after treatments, peptide alone, Figure 1B) | Tyr419 cSRC phosphorilation [4]
1 | COC(=O)CCC(=O)CN [mALA, methyl aminolevulinate] | 5 | approximately 5 days |  |  |  |  |  |  |  |  |  |  | 
2 | Glu-Pro-Gln-Tyr(PO3H2)-Glu-Glu-Ile-Pro-Ile-Tyr-Leu (EPQ[pY]EEIPIYL) [YEEI phosphopeptide] |  |  | statistically significant induction | significantly enhanced | markedly enhanced | significantly promotes | significantly promotes | significantly enhanced | markedly increased | significantly enhanced | markedly increased | statistically significant induction | induced
